A word on the pEC50: it is −log10 of the EC50, conventionally taken in molar units. A lower pEC50 goes with a large EC50.

We go through three molecules from ChEMBL document CHEMBL5726915, “Substituted pyrimidines containing acidic groups as TLR7 modulators” (2019).

The target in this assay is T1, Toll-like receptor 7 (Homo sapiens, UniProt Q9NYK1).
T1 sequence (Q9NYK1 whole entry): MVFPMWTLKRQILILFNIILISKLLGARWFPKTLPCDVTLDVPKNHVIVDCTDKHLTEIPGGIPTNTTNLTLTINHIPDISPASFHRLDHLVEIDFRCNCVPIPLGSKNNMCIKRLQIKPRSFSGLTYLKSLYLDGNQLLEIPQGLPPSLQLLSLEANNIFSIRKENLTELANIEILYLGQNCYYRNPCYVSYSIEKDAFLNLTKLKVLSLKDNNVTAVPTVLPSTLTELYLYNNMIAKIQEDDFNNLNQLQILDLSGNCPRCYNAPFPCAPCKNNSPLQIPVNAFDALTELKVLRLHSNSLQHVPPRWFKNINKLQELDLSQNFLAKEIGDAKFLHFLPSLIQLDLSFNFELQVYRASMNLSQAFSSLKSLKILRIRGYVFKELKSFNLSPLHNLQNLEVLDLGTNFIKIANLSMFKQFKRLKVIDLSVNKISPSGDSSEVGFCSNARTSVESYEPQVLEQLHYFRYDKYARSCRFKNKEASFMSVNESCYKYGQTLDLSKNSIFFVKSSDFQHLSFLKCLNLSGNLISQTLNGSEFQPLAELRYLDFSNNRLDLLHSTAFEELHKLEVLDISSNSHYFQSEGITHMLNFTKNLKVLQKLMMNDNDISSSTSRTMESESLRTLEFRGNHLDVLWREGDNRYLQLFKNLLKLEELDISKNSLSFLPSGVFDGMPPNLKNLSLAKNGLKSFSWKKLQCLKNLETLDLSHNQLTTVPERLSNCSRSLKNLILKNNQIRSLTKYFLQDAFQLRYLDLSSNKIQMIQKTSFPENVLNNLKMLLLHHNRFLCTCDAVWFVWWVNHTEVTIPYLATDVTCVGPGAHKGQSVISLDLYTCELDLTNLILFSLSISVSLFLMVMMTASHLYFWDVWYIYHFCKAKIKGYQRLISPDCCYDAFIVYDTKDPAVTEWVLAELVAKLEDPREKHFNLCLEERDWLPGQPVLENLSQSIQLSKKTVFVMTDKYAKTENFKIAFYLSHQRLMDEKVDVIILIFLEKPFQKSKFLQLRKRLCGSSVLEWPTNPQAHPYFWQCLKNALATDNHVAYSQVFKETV
As to the kind of experiment: HEK TLR7 Assay: HEK-Blue TLR7 cells were purchased from Invivogen (San Diego, Calif.). The following description was taken from the product information sheet."HEK-Blue hTLR7 cells are designed for studying the stimulation of human TLR7 (hTLR7) by monitoring the activation of NF-kB. HEK-Blue hTLR7 cells were obtained by co-transfection of the hTLR7 gene and an optimized secreted embryonic alkaline phosphatase (SEAP) reporter gene into HEK293 cells. The SEAP reporter gene is placed under the control of the IFN-b minimal promoter fused to five NF-kB and AP-1-binding sites. Stimulation with a TLR7 ligand activates NF-kB and AP-1 which induce the production of SEAP, which is detected by the HEK-Blue™ Detection cell culture medium."A typical assay protocol involved the following steps:1. Cells were cultured according to the product information sheet.2. 10 mM compound stock in DMSO were first diluted to 3 mM and then 3-fold serially diluted using DMSO to afford a 10-pt dilution.3. 3 μl of the diluted DMSO were added to 57 μl HEK-Blue Detection media for a further 20-fold dilution.4. 10 μl of the diluted compound in assay media were added into 40 μl cell culture (in HEK-Blue™ Detection media) in 384-well plate. Final cell concentration=8,000 cells per well.5. The plates were incubated at 37° C. in 5% CO2 for 16 h. SEAP was determined using a spectrophotometer at 620-655 nm.

pEC50: −log10 of the molar value. A value given as a limit tells only on which side of the number the result lay.

`CCCC[C@@H](CCSC)Nc1nc(N)nc(C)c1Cc1cc(Cc2nn[nH]n2)ccc1OC` had a pEC50 of more than 7.00.

Take `CCCC[C@@H](CCSC)Nc1nc(N)nc(C)c1Cc1cc(C(=O)NCCCP(=O)(O)O)ccc1OC`: the negative logarithm of the EC50 (pEC50) is more than 7.00. Consider `CCCC[C@@H](CCS(C)(=O)=O)Nc1nc(N)nc(C)c1Cc1cc(Cc2nn[nH]n2)ccc1OC`, for which the pEC50 was more than 7.00.
